Results as given in patent US12473339B2, “Acylated glucagon analogues” (Zealand Pharma A/S, priority 2013, dated 2025).
*1 amine or outer side, *2 acyl side, *3 side chain or, on linkers, in order; H or OH if unused. Where a SMILES comes first, the peptide text is derived from it. Side-chain parts run from the residue outwards. [ ]: non-standard residue; d: D form. The star is where a group is joined. C18 diacid = O=C(O)CCCCCCCCCCCCCCCCC(=O)*; γGlu = O=C(O)[C@H](CCC(=O)[*:2])N[*:1]; Ac4c = NC1(C(=O)O)CCC1; AEEA = NCCOCCOCC(=O)O

Experiments:
[1] = molecular target: T1, human glucagon-like peptide 1 receptor (GLP-1R) (Homo sapiens, UniProt P43220); assay: GLP-1 receptor efficacy assay (cAMP AlphaScreen, CHO cells); format: cell-based; details: for Ratio GLP-1/Glucagon: EC50 [GLP-1R] / EC50 [Glucagon-R], human receptors in CHO-K1; for EC50: cAMP formation, CHO cells expressing human GLP-1-R, 15 min, read-out: EC50 hGLP-1R CHO-K1
T1 construct: expressed in transfected cells
Text: (§1) The cDNA encoding either the human glucagon receptor (Glucagon-R) (primary accession number P47871) or the human glucagon-like peptide 1 receptor (GLP-1R) (primary accession number P43220) were synthesized and cloned into a mammalian expression vector containing a Zeocin resistance marker.
(§2) The mammalian expression vectors encoding the Glucagon-R or the GLP-1-R were transfected into Chinese hamster ovary (CHO) cells by the Attractene method. Stably expressing clones were obtained by Zeocin selection (250 μg/mL) upon limited dilution of cells resistant to the selection pressure. Glucagon-R and GLP-1-R cell clones expressing were picked, propagated and tested in the Glucagon-R and GLP-1-R efficacy assays as described below. One Glucagon-R expressing clone and one GLP-1-R expressing clone were chosen for compound profiling.
(§3) CHO cells expressing the human Glucagon-R, or human GLP-1-R were seeded 24 hours prior to the assay at 30,000 cells per well in 96-well microtiter plates in culture in 100 μl growth medium. On the day of analysis, growth medium was removed and the cells were washed once with 200 μl of assay buffer (Krebs-Ringer-buffer—KRBH). The buffer was removed and the cells were incubated for 15 min at room temperature in 10 μl KRBH (KRBH+10 mM HEPES, 5 mM NaHCO3, 0.1% (V/V) BSA) with 0.1 mM IBMX in deionized water containing increasing concentrations of test peptides. The reaction was stopped by the addition of lysis buffer (0.1% w/v BSA, 5 mM HEPES, 0.3% v/v Tween-20). After cell lysis for 10 min at room temperature, lysates were transferred to 384-well plates and 10 μl of acceptor/donorbead mixture as contained in the AlphaScreen™ cAMP Functional Assay Kit was added. After one hour of incubation at room temperature in the dark, the cAMP content was determined applying the AlphaScreen™ cAMP Functional Assay Kit from Perkin-Elmer according to manufacturer instructions. EC50 and relative efficacies compared to reference compounds (glucagon and GLP-1) were calculated applying computer aided curve fitting. The GLP-1/glucagon ratio is calculated as defined earlier.

[2] = Pharmacokinetic parameters after intravenous administration to rats; details: male, Han/Wistar, rat, in vivo, 20 nmol/kg
Procedure: Pharmacokinetic parameters of the test compounds were determined after intravenous administration to Han/Wistar rats. The acylated GLP-1 analogue semaglutide was also tested for comparison purposes. Male Wistar rats were obtained from Charles River (Germany) weighing approximately 180 to 210 g at time of arrival at the test facility. Rats were caged in European standard rat cages type IV with light cycle of 12-hour dark and 12-hour light. During the study rats were housed in standard rat cages type III. Both diet Altromin 1324 (Altromin, Germany) and water was administered ad libitum during the whole experimental period. The animals were housed in the test facility for at least 4 days in order to assure proper acclimatization. The compounds were first dissolved in 0.1% aqueous ammonia to a nominal concentration of 2 mg/ml, and then diluted to the desired dosing strength (10 μM) in sterile PBS containing 25 mM phosphate buffer, pH 7.4. Intravenous injections corresponding to 20 nmol/kg were given via a lateral tail vein. Blood samples (200 μl) were collected from the periorbital plexus at time points 0.08, 0.25, 0.5, 1, 2, 4, 8, 24, 32 and 48 h post dosing into K3EDTA tubes and centrifuged for 5 minutes at 4° C. within 20 minutes of sampling. […] Individual plasma concentration-time profiles were analysed by a non-compartmental approach using ToxKin™ version 3.2 (Unilog IT Services), and the resulting pharmacokinetic parameters were determined.

[3] = molecular target: T2, human glucagon receptor (Glucagon-R) (Homo sapiens, UniProt P47871); assay: Glucagon receptor efficacy assay (cAMP AlphaScreen, CHO cells); format: cell-based; details: cAMP formation, CHO cells expressing human Glucagon-R, 15 min; read-out: EC50 hGCGR CHO-K1
T2 construct: expressed in transfected cells
Text: as §1, §2, §3

T1 sequence (P43220 24-463): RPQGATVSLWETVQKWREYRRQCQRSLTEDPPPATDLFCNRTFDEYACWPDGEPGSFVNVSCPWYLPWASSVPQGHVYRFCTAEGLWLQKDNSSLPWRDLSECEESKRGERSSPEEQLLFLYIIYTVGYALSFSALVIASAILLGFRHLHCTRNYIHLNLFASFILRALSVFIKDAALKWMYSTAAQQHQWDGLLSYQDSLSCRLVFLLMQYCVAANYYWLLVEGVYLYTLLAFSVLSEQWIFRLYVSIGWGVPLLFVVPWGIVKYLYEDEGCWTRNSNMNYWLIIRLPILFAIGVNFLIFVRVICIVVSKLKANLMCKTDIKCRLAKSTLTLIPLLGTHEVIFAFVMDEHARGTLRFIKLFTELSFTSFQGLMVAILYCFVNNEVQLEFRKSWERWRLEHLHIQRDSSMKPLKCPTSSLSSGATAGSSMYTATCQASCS
T2 sequence (P47871 26-477): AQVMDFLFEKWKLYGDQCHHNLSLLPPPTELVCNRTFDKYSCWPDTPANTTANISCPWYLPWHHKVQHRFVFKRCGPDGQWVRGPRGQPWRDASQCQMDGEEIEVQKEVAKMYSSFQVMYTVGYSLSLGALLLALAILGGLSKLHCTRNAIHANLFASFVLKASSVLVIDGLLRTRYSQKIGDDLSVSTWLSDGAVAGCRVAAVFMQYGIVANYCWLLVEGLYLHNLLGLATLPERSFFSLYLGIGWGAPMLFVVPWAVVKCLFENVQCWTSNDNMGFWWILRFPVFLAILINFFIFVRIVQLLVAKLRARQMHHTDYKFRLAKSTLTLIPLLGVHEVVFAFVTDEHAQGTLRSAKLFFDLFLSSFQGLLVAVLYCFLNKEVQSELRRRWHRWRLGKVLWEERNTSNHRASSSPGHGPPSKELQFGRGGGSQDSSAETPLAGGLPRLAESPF

SMILES	Ratio GLP-1/Glucagon [1]	EC50 [1] [nM]	MRT [2] [h]	clearance [2] [mL/h/kg]	half-life [2] [h]	EC50 [3] [nM]
CC[C@H](C)[C@H](NC(=O)[C@H](Cc1ccccc1)NC(=O)[C@H](CC(=O)O)NC(=O)[C@H](CCCCN)NC(=O)[C@H](C)NC(=O)[C@H](C)NC(=O)[C@H](CCCNC(=N)N)NC(=O)[C@H](CCC(=O)O)NC(=O)[C@H](CC(=O)O)NC(=O)[C@H](CC(C)C)NC(=O)[C@H](Cc1ccc(O)cc1)NC(=O)[C@H](CCCCN)NC(=O)[C@H](CO)NC(=O)[C@H](Cc1ccc(O)cc1)NC(=O)[C@H](CC(=O)O)NC(=O)[C@H](CO)NC(=O)[C@@H](NC(=O)[C@H](Cc1ccccc1)NC(=O)[C@@H](NC(=O)CNC(=O)[C@H](CCC(N)=O)NC(=O)C(C)(C)NC(=O)[C@@H](N)Cc1c[nH]cn1)[C@@H](C)O)[C@@H](C)O)C(=O)N[C@@H](CCCCNC(=O)CNC(=O)CNC(=O)[C@H](CO)NC(=O)CNC(=O)[C@H](CO)NC(=O)CNC(=O)CC[C@H](NC(=O)CCCCCCCCCCCCCCCCC(=O)O)C(=O)O)C(=O)N[C@@H](Cc1c[nH]c2ccccc12)C(=O)N[C@@H](CC(C)C)C(=O)N[C@@H](CCC(=O)O)C(=O)N[C@@H](CO)C(=O)N[C@@H](C)C(N)=O [Compound 3]	0.47	0.7	28.7	3.36	23.4	
CC[C@H](C)[C@H](NC(=O)[C@H](Cc1ccccc1)NC(=O)[C@H](CC(=O)O)NC(=O)[C@H](CCCCN)NC(=O)[C@H](C)NC(=O)[C@H](CCCNC(=N)N)NC(=O)[C@H](CCCCNC(=O)COCCOCCNC(=O)COCCOCCNC(=O)CC[C@H](NC(=O)CCCCCCCCCCCCCCCCC(=O)O)C(=O)O)NC(=O)[C@H](CCC(=O)O)NC(=O)[C@H](CC(=O)O)NC(=O)[C@H](CC(C)C)NC(=O)[C@H](Cc1ccc(O)cc1)NC(=O)[C@H](CCCCN)NC(=O)[C@H](CO)NC(=O)[C@H](Cc1ccc(O)cc1)NC(=O)[C@H](CC(=O)O)NC(=O)[C@H](CO)NC(=O)[C@@H](NC(=O)[C@H](Cc1ccccc1)NC(=O)[C@@H](NC(=O)CNC(=O)[C@H](CCC(N)=O)NC(=O)C1(NC(=O)[C@@H](N)Cc2c[nH]cn2)CCC1)[C@@H](C)O)[C@@H](C)O)C(=O)N[C@@H](CCC(=O)O)C(=O)N[C@@H](Cc1c[nH]c2ccccc12)C(=O)N[C@@H](CC(C)C)C(=O)N[C@@H](CCC(=O)O)C(=O)N[C@@H](CO)C(=O)N[C@@H](C)C(N)=O [Compound 4, H-H-Ac4c-QGTFTSDYSKYLDE-K([17-carboxy-heptadecanoyl]-isoGlu-Peg3-Peg3)-RAKDFIEWLESA-NH2] (H-H[Ac4c]QGTFTSDYSKYLDEK([AEEA-AEEA-γGlu-C18 diacid])RAKDFIEWLESA-NH2)	1.56	0.7	17.6	6.6	13.7	
CC[C@H](C)[C@H](NC(=O)[C@H](Cc1ccccc1)NC(=O)[C@H](CC(=O)O)NC(=O)[C@H](CCCCN)NC(=O)[C@H](C)NC(=O)[C@H](C)NC(=O)[C@H](CCCNC(=N)N)NC(=O)[C@H](CCCCNC(=O)CNC(=O)CNC(=O)[C@H](CO)NC(=O)CNC(=O)[C@H](CO)NC(=O)CNC(=O)CC[C@H](NC(=O)CCCCCCCCCCCCCCCCC(=O)O)C(=O)O)NC(=O)[C@H](CC(=O)O)NC(=O)[C@H](CC(C)C)NC(=O)[C@H](Cc1ccc(O)cc1)NC(=O)[C@H](CCCCN)NC(=O)[C@H](CO)NC(=O)[C@H](Cc1ccc(O)cc1)NC(=O)[C@H](CC(=O)O)NC(=O)[C@H](CO)NC(=O)[C@@H](NC(=O)[C@H](Cc1ccccc1)NC(=O)[C@@H](NC(=O)CNC(=O)[C@H](CCC(N)=O)NC(=O)C(C)(C)NC(=O)[C@@H](N)Cc1c[nH]cn1)[C@@H](C)O)[C@@H](C)O)C(=O)N[C@@H](CCC(=O)O)C(=O)N[C@@H](Cc1c[nH]c2ccccc12)C(=O)N[C@@H](CC(C)C)C(=O)N[C@@H](CCC(=O)O)C(=O)N[C@@H](CO)C(=O)N[C@@H](C)C(N)=O [Compound 5, H-H-Aib-QGTFTSDYSKYLD-K([17-carboxy-heptadecanoyl]-isoGlu-GSGSGG)-RAAKDFIEWLESA-NH2]	4.61					0.18
CC[C@H](C)[C@H](NC(=O)[C@H](Cc1ccccc1)NC(=O)[C@H](CC(=O)O)NC(=O)[C@H](CCCCN)NC(=O)[C@H](C)NC(=O)[C@H](CCCNC(=N)N)NC(=O)[C@H](CCCCNC(=O)CC[C@H](NC(=O)CCCCCCCCCCCCCCCCC(=O)O)C(=O)O)NC(=O)[C@H](CCC(=O)O)NC(=O)[C@H](CC(=O)O)NC(=O)[C@H](CC(C)C)NC(=O)[C@H](Cc1ccc(O)cc1)NC(=O)[C@H](CCCCN)NC(=O)[C@H](CO)NC(=O)[C@H](Cc1ccc(O)cc1)NC(=O)[C@H](CC(=O)O)NC(=O)[C@H](CO)NC(=O)[C@@H](NC(=O)[C@H](Cc1ccccc1)NC(=O)[C@@H](NC(=O)CNC(=O)[C@H](CCC(N)=O)NC(=O)C1(NC(=O)[C@@H](N)Cc2c[nH]cn2)CCC1)[C@@H](C)O)[C@@H](C)O)C(=O)N[C@@H](CCC(=O)O)C(=O)N[C@@H](Cc1c[nH]c2ccccc12)C(=O)N[C@@H](CC(C)C)C(=O)N[C@@H](CCC(=O)O)C(=O)N[C@@H](CO)C(=O)N[C@@H](C)C(N)=O [Compound 12, H-H-Ac4c-QGTFTSDYSKYLDE-K([17-carboxy-heptadecanoyl]-isoGlu)-RAKDFIEWLESA-NH2] (H-H[Ac4c]QGTFTSDYSKYLDEK([γGlu-C18 diacid])RAKDFIEWLESA-NH2)	6.86					0.07
